The values below come from US20140155376A1, “PYRROLOPYRAZINE KINASE INHIBITORS” (Hoffmann-La Roche Inc., priority 2010, published 2014).

T1 sequence (P52333 810-1124): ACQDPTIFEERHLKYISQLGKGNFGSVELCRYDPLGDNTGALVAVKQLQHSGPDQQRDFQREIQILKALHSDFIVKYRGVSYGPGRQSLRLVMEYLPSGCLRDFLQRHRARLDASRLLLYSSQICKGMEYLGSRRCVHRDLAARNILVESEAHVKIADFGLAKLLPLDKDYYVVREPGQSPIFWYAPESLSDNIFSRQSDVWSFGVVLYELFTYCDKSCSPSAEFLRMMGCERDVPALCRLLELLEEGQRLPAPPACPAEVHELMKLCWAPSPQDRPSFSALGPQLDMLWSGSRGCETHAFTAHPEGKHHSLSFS

This test addresses T1, JAK3 (recombinant human kinase domain; h-jak3(810-1124)) (Homo sapiens, UniProt P52333).
T1 construct: h-jak3(810- 1124)-sf9-c; made in house; host or cells: Sf9 insect cells
Put plainly: Determination of IC50 of Janus Kinase (JAK) inhibition: JAK3, radioactive end-point assay with 33P-ATP. The class given is biochemical. Particulars: JAK3 kinase domain; ATP 1.5 uM, peptide 50 uM, 20 minutes, room temperature, 10% DMSO; read-out: Ic50 h-jak3(810-1124)-sf9-c:no additive.
As for `C[C@@H](NC(=O)c1c[nH]c2ncc(C3CC3)nc12)[C@](C)(O)CC#N` [Example I-91, 2-Cyclopropyl-5H-pyrrolo[2,3-b]pyrazine-7-carboxylic acid ((1R,2R)-3-cyano-2-hydroxy-1,2-dimethyl-propyl)-amide], the IC50 – broadly, the concentration needed to halve the response being measured – worked out at 38.7 nM.
In the case of `C[C@H](NC(=O)c1c[nH]c2ncc(Oc3ccccc3)nc12)C(C)(C)O` [Example I-128, 2-Phenoxy-5H-pyrrolo[2,3-b]pyrazine-7-carboxylic acid ((S)-2-hydroxy-1,2-dimethyl-propyl)-amide] it was 211 nM; in that of `CC(C)(O)[C@@H](NC(=O)c1c[nH]c2ncc(C3CC3)nc12)C1CCCCC1` [Example I-94, 2-Cyclopropyl-5H-pyrrolo[2,3-b]pyrazine-7-carboxylic acid ((S)-1-cyclohexyl-2-hydroxy-2-methyl-propyl)-amide], 878 nM; in that of `C[C@H](NC(=O)c1c[nH]c2ncc(-c3ccc(C(=O)NCc4c(F)cccc4Cl)s3)nc12)C(C)(C)C` [Example I-189, 2-[5-(2-Chloro-6-fluoro-benzylcarbamoyl)-thiophen-2-yl]-5H-pyrrolo[2,3-b]pyrazine-7-carboxylic acid ((S)-1,2,2-trimethyl-propyl)-amide], 0.6 nM.
In the case of `C[C@H](NC(=O)c1c[nH]c2ncc(Oc3ccccc3)nc12)C1CCCCC1` [Example I-123, 2-Phenoxy-5H-pyrrolo[2,3-b]pyrazine-7-carboxylic acid ((S)-1-cyclohexyl-ethyl)-amide] it was 1330 nM; in that of `CC(O)CC(C)(C)NC(=O)c1c[nH]c2ncc(C3CC3)nc12` (stereo not drawn) [Example I-12, 2-Cyclopropyl-5H-pyrrolo[2,3-b]pyrazine-7-carboxylic acid (3-hydroxy-1,1-dimethyl-butyl)-amide], 192 nM.
Turning to `CC(C)(O)[C@H](NC(=O)c1c[nH]c2ncc(C3CC3)nc12)C1CC1` [Example I-74, 2-Cyclopropyl-5H-pyrrolo[2,3-b]pyrazine-7-carboxylic acid ((R)-1-cyclopropyl-2-hydroxy-2-methyl-propyl)-amide], the IC50 worked out at 27.1 nM.
With `C[C@H](NC(=O)c1c[nH]c2ncc(C3CC3)nc12)[C@](C)(O)CC1CC1` [Example I-48, 2-Cyclopropyl-5H-pyrrolo[2,3-b]pyrazine-7-carboxylic acid ((1S,2R)-3-cyclopropyl-2-hydroxy-1,2-dimethyl-propyl)-amide], the half-inhibitory concentration (IC50) is 116 nM.
Under `C[C@H](NC(=O)c1c[nH]c2ncc(-c3cccs3)nc12)C(C)(C)O` [Example I-18, 2-Thiophen-2-yl-5H-pyrrolo[2,3-b]pyrazine-7-carboxylic acid ((S)-2-hydroxy-1,2-dimethyl-propyl)-amide] stands 3.05 nM.
